Results: US7531482B2, “Thieno-pyrimidine compounds having fungicidal activity” (Dow AgroSciences LLC, priority 2005, dated 2009)

Key:
Assay type in all cases: in vivo
[1] = tested on: Puccinia recondita tritici; experiment: Leaf Rust of Wheat (PUCCRT) whole-plant disease control test; conditions: Puccinia recondita, foliar; for pest or weed control at 200 ppm: 200 ppm applied to foliage of wheat, inoculated one day after treatment, read-out: PUCCRT disease control; for pest or weed control at 8.3 ppm: 8.3 ppm (footnote c), wheat foliage
Colletotricum lagenarium = experiment: Cucumber Anthracnose (COLLLA) whole-plant disease control test; conditions: Cucumis sativus, foliar; 200 ppm applied to foliage of cucumber; inoculated one day after treatment; read-out: COLLLA disease control
Phytophthora infestans = experiment: whole plant or invertebrate; conditions: Phytophthora infestans, in Solanum lycopersicum, foliar, read-out: PHYTIN disease control, 200 ppm applied to foliage of tomato; inoculated one day after treatment
[2] = tested on: Mycosphaerella graminicola=Septoria tritici; experiment: Speckled Leaf Blotch of Wheat (SEPTTR) whole-plant disease control test; conditions: Mycosphaerella, foliar, 75 ppm applied to foliage of wheat; read-out: SEPTTR disease control
Erysiphe cichoracaerum = experiment: Cucumber Powdery Mildew (ERYSCI) whole-plant disease control test; conditions: Erysiphe, foliar; 200 ppm applied to foliage of cucumber; inoculated one day after treatment; read-out: ERYSCI disease control
Leptosphaeria nodorum = experiment: Glume Blotch of Wheat (LEPTNO) whole-plant disease control test; conditions: Parastagonospora nodorum, foliar; for pest or weed control at 200 ppm: 200 ppm applied to foliage of wheat, inoculated one day after treatment, read-out: LEPTNO disease control; for pest or weed control at 75 ppm: 75 ppm (footnote b), wheat foliage
[3] = tested on: Magnaporthe grisea=Pyricularia oryzae; experiment: whole plant or invertebrate; conditions: Pyricularia oryzae, foliar; for pest or weed control at 200 ppm: read-out: PYRIOR disease control, 200 ppm applied to foliage of rice, inoculated one day after treatment; for pest or weed control at 8.3 ppm: read-out: PYRIOR disease control, 8.3 ppm (footnote c), rice foliage

Structure (SMILES): FC(F)(F)c1ccc(Oc2ccc(CCNc3ncnc4scc(Cl)c34)cc2)nc1 [Compound 1, 5-(Chlorothieno[2,3-d]pyrimidin-4-yl)-{2-[4-(5-trifluoromethylpyridin-2-yloxy)phenyl]ethyl}amine]
- pest or weed control at 200 ppm [1]: 80 to 100%
- pest or weed control at 200 ppm (Colletotricum lagenarium): 0 to 49%
- pest or weed control at 200 ppm (Phytophthora infestans): 0 to 49%
- pest or weed control at 75 ppm [2]: 50 to 79%
- pest or weed control at 200 ppm (Erysiphe cichoracaerum): 50 to 79%
- pest or weed control at 200 ppm (Leptosphaeria nodorum): 50 to 79%
- pest or weed control at 200 ppm [3]: 80 to 100%

Structure (SMILES): CS(=O)(=O)c1ccc(Oc2ccc(CCNc3ncnc4scc(Cl)c34)cc2)nc1 [Compound 2]
- pest or weed control at 200 ppm [1]: 80 to 100%
- pest or weed control at 200 ppm (Colletotricum lagenarium): 0 to 49%
- pest or weed control at 200 ppm (Phytophthora infestans): 0 to 49%
- pest or weed control at 200 ppm (Erysiphe cichoracaerum): 0 to 49%
- pest or weed control at 200 ppm (Leptosphaeria nodorum): 0 to 49%
- pest or weed control at 200 ppm [3]: 50 to 79%

Structure (SMILES): O=[N+]([O-])c1ccc(Oc2ccc(CCNc3ncnc4scc(Cl)c34)cc2)nc1 [Compound 3]
- pest or weed control at 200 ppm [1]: 80 to 100%
- pest or weed control at 200 ppm (Colletotricum lagenarium): 50 to 79%
- pest or weed control at 200 ppm (Phytophthora infestans): 80 to 100%
- pest or weed control at 75 ppm [2]: 50 to 79%
- pest or weed control at 200 ppm (Erysiphe cichoracaerum): 50 to 79%
- pest or weed control at 200 ppm (Leptosphaeria nodorum): 50 to 79%
- pest or weed control at 200 ppm [3]: 80 to 100%

Structure (SMILES): N#Cc1ccc(Oc2ccc(CCNc3ncnc4scc(Cl)c34)cc2)nc1 [Compound 4]
- pest or weed control at 200 ppm [1]: 80 to 100%
- pest or weed control at 200 ppm (Colletotricum lagenarium): 80 to 100%
- pest or weed control at 200 ppm (Phytophthora infestans): 80 to 100%
- pest or weed control at 75 ppm [2]: 50 to 79%
- pest or weed control at 200 ppm (Erysiphe cichoracaerum): 80 to 100%
- pest or weed control at 200 ppm (Leptosphaeria nodorum): 80 to 100%
- pest or weed control at 200 ppm [3]: 80 to 100%

Structure (SMILES): CC(C)(C)OC(=O)c1ccc(Oc2ccc(CCNc3ncnc4scc(Cl)c34)cc2)cc1 [Compound 6]
- pest or weed control at 200 ppm [1]: 80 to 100%
- pest or weed control at 200 ppm (Colletotricum lagenarium): 50 to 79%
- pest or weed control at 200 ppm (Phytophthora infestans): 50 to 79%
- pest or weed control at 75 ppm [2]: 50 to 79%
- pest or weed control at 200 ppm (Erysiphe cichoracaerum): 80 to 100%
- pest or weed control at 200 ppm (Leptosphaeria nodorum): 0 to 49%
- pest or weed control at 200 ppm [3]: 80 to 100%

Structure (SMILES): Clc1csc2ncnc(NCCc3ccc(Oc4ccc(Br)cn4)cc3)c12 [Compound 7, {2-[4-(5-Bromopyridin-2-yloxy)phenyl]ethyl}-(5-chlorothieno[2,3-d]pyrimidin-4-yl}amine]
- pest or weed control at 200 ppm [1]: 80 to 100%
- pest or weed control at 200 ppm (Colletotricum lagenarium): 50 to 79%
- pest or weed control at 200 ppm (Phytophthora infestans): 0 to 49%
- pest or weed control at 75 ppm [2]: 50 to 79%
- pest or weed control at 200 ppm (Erysiphe cichoracaerum): 80 to 100%
- pest or weed control at 200 ppm (Leptosphaeria nodorum): 80 to 100%
- pest or weed control at 200 ppm [3]: 50 to 79%

Structure (SMILES): COC(=O)c1ccc(Oc2ccc(CCNc3ncnc4scc(Cl)c34)cc2)nc1 [Compound 20]
- pest or weed control at 200 ppm [1]: 80 to 100%
- pest or weed control at 200 ppm (Colletotricum lagenarium): 0 to 49%
- pest or weed control at 200 ppm (Phytophthora infestans): 0 to 49%
- pest or weed control at 200 ppm (Erysiphe cichoracaerum): 0 to 49%
- pest or weed control at 200 ppm (Leptosphaeria nodorum): 0 to 49%
- pest or weed control at 200 ppm [3]: 0 to 49%

Structure (SMILES): NC(=O)c1cccc(Oc2ccc(CCNc3ncnc4scc(Cl)c34)cc2)n1 [Compound 82]
- pest or weed control at 8.3 ppm [1]: 80 to 100%
- pest or weed control at 75 ppm [2]: 50 to 79%
- pest or weed control at 75 ppm (Leptosphaeria nodorum): 50 to 79%
- pest or weed control at 8.3 ppm [3]: 80 to 100%

Structure (SMILES): O=[N+]([O-])c1cccc(Oc2ccc(CCNc3ncnc4scc(Cl)c34)cc2)n1 [Compound 83]
- pest or weed control at 8.3 ppm [1]: 80 to 100%
- pest or weed control at 75 ppm [2]: 50 to 79%
- pest or weed control at 75 ppm (Leptosphaeria nodorum): 50 to 79%
- pest or weed control at 8.3 ppm [3]: 80 to 100%

Structure (SMILES): COc1cccc(Oc2ccc(CCNc3ncnc4scc(Cl)c34)cc2)n1 [Compound 84, (5-Chlorothieno[2,3-d]pyrimidin-4-yl)-{2-[4-(6-methoxypyridin-2-yloxy)phenyl]ethyl}amine]
- pest or weed control at 8.3 ppm [1]: 80 to 100%
- pest or weed control at 75 ppm [2]: 50 to 79%
- pest or weed control at 75 ppm (Leptosphaeria nodorum): 50 to 79%
- pest or weed control at 8.3 ppm [3]: 80 to 100%

Structure (SMILES): O=c1ncn(-c2cccc(Oc3ccc(CCNc4ncnc5scc(Cl)c45)cc3)n2)[nH]1 [Compound 90]
- pest or weed control at 8.3 ppm [1]: 0 to 49%
- pest or weed control at 75 ppm [2]: 50 to 79%
- pest or weed control at 75 ppm (Leptosphaeria nodorum): 0 to 49%
- pest or weed control at 8.3 ppm [3]: 50 to 79%

Structure (SMILES): C[S+]([O-])c1cc(Cl)nc(Oc2ccc(CCNc3ncnc4scc(Cl)c34)cc2)c1 (centres unmarked) [Compound 92]
- pest or weed control at 8.3 ppm [1]: 80 to 100%
- pest or weed control at 75 ppm [2]: 50 to 79%
- pest or weed control at 75 ppm (Leptosphaeria nodorum): 0 to 49%
- pest or weed control at 8.3 ppm [3]: 80 to 100%

Structure (SMILES): CSc1cc(C(F)(F)F)cc(Oc2ccc(CCNc3ncnc4scc(Cl)c34)cc2)n1 [Compound 93]
- pest or weed control at 8.3 ppm [1]: 80 to 100%
- pest or weed control at 75 ppm [2]: 50 to 79%
- pest or weed control at 75 ppm (Leptosphaeria nodorum): 0 to 49%
- pest or weed control at 8.3 ppm [3]: 80 to 100%

Structure (SMILES): CC(C)(C)c1noc(-c2cccc(Oc3ccc(CCNc4ncnc5scc(Cl)c45)cc3)n2)n1 [Compound 96]
- pest or weed control at 8.3 ppm [1]: 80 to 100%
- pest or weed control at 75 ppm [2]: 50 to 79%
- pest or weed control at 75 ppm (Leptosphaeria nodorum): 50 to 79%
- pest or weed control at 8.3 ppm [3]: 50 to 79%

Structure (SMILES): O=C(O)c1ccc(C(F)(F)F)nc1Oc1ccc(CCNc2ncnc3scc(Cl)c23)cc1 [Compound 98]
- pest or weed control at 8.3 ppm [1]: 0 to 49%
- pest or weed control at 75 ppm [2]: 50 to 79%
- pest or weed control at 75 ppm (Leptosphaeria nodorum): 0 to 49%
- pest or weed control at 8.3 ppm [3]: 0 to 49%

Structure (SMILES): CC(=O)c1cccc(Oc2ccc(CCNc3ncnc4scc(Cl)c34)cc2)n1 [Compound 100]
- pest or weed control at 8.3 ppm [1]: 80 to 100%
- pest or weed control at 75 ppm (Leptosphaeria nodorum): 0 to 49%
- pest or weed control at 8.3 ppm [3]: 80 to 100%

Structure (SMILES): CC(C)(C)C(=O)NNc1cccc(Oc2ccc(CCNc3ncnc4scc(Cl)c34)cc2)n1 [Compound 102, 2,2-Dimethylpropionic acid N′-(6-{4-[2-(5-chlorothieno[2,3-d]pyrimidin-4-ylamino)ethyl]phenoxy}pyridine-2-yl)-hydrazide]
- pest or weed control at 8.3 ppm [1]: 0 to 49%
- pest or weed control at 75 ppm [2]: 0 to 49%
- pest or weed control at 75 ppm (Leptosphaeria nodorum): 0 to 49%
- pest or weed control at 8.3 ppm [3]: 50 to 79%
